Results reported in patent US20230233569A1 (Revolution Medicines, Inc., priority 2020, published 2023).
Like-named read-outs stand apart in the source and are kept apart here.

Legend:
[1] = target: KRAS Q61H (Homo sapiens, UniProt P01116+P62937, Q61H); assay: Disruption of BRAF RBD interaction with Ras (FRET / MOA assay, with Cyclophilin A); assay type: biochemical; conditions: KRAS Q61H; read-out: KRAS Q61H FRET data IC50
Outline: (§1)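 IC50 reflects compound-driven Ras:Cyclophilin A ternary complex displacing BRAF RBD, read as lowered TR-FRET ratio relative to DMSO after Eu anti-His (10 nM) and APC anti-GST (50 nM) detection for 1.5 h. Prior incubation 3 h, 25° C, with 12.5 nM GMPPNP-loaded Ras, 50 nM BRAF RBD, 25 μM Cyclophilin A; top compound 30 μM.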

[2] = target: NRAS Q61K (Homo sapiens, UniProt P01111+P62937, Q61K); assay: as above; assay type: biochemical; conditions: NRAS Q61K; read-out: NRAS Q61K FRET data IC50
Outline: as §1

[3] = target: NRAS Q61R (Homo sapiens, UniProt P01111+P62937, Q61R); assay: as above; assay type: biochemical; conditions: NRAS Q61R; read-out: NRAS Q61R FRET data IC50
Outline: as §1

[4] = target: NRAS WT (Homo sapiens, UniProt P01111+P62937); assay: as above; assay type: biochemical; conditions: NRAS WT; read-out: NRAS WT FRET data IC50
Outline: as §1

[5] = test system: NCI-H358 (K-Ras G12C); assay: CellTiter-Glo cell viability assay, 5-day treatment; assay type: cell-based; conditions: Homo sapiens, NCI-H358, 120 h, 5-day treatment; read-out: H358 Cell Viability assay data (K-Ras G12C, IC50)
Outline: (§2)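 Seeded cells received test compound by direct dispensing. On day 5 the plates sat at room temperature approximately 30 minutes, then luminescence was measured. Data were normalized to DMSO and curve-fitted with four parameters.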

[6] = target: KRAS G12D (Homo sapiens, UniProt P01116+P62937, G12D); assay: Disruption of BRAF RBD interaction with Ras (FRET / MOA assay, with Cyclophilin A); assay type: biochemical
Outline: (§3)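 Here, compound titrations (ten points, factor 3, from 30 μM final) act on nucleotide-bound K-Ras and Cyclophilin A, and ternary complex formation disrupts the RAF RBD interaction.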

[7] = target: KRAS G12S (Homo sapiens, UniProt P01116+P62937, G12S); assay: as above; assay type: biochemical
Outline: as §3

[8] = target: KRAS G13C (Homo sapiens, UniProt P01116+P62937, G13C); assay: as above; assay type: biochemical
Outline: as §3

[9] = target: KRAS G12C (Homo sapiens, UniProt P01116+P62937, G12C); assay: as above; assay type: biochemical
Outline: as §3

[10] = target: KRAS G13D (Homo sapiens, UniProt P01116+P62937, G13D); assay: as above; assay type: biochemical
Outline: as §3

[11] = target: NRAS G12C (Homo sapiens, UniProt P01111+P62937, G12C); assay: as above; assay type: biochemical
[12] = target: KRAS WT (Homo sapiens, UniProt P01116+P62937); assay: as above; assay type: biochemical
Outline: as §3

[13] = target: KRAS G12V (Homo sapiens, UniProt P01116+P62937, G12V); assay: as above; assay type: biochemical
Outline: as §3

[14] = test system: Capan-1 (K-Ras G12V); assay: CellTiter-Glo cell viability assay, 5-day treatment; assay type: cell-based; conditions: Homo sapiens, CAPAN-1, 120 h, 5-day treatment; read-out: Capan-1 Cell Viability assay data (K-Ras G12V, IC50)
Outline: as §2

[15] = KRAS G13D FRET data IC50, KRAS G13D
[16] = NRAS G12C FRET data IC50, NRAS G12C
[17] = KRAS WT FRET data IC50, KRAS WT
[18] = KRAS G12V FRET data IC50, KRAS G12V
[19] = read-out: KRAS G12D FRET data, IC50
[20] = read-out: KRAS G12S FRET data, IC50
[21] = read-out: KRAS G13C FRET data, IC50
[22] = read-out: KRAS G12C FRET data, IC50
[23] = KRAS G13D, read-out: KRAS G13D FRET data IC50
[24] = NRAS G12C, read-out: NRAS G12C FRET data IC50
[25] = KRAS WT, read-out: KRAS WT FRET data IC50
[26] = KRAS G12V, read-out: KRAS G12V FRET data IC50

Sequence of NRAS Q61R (P01111 whole entry Q61R): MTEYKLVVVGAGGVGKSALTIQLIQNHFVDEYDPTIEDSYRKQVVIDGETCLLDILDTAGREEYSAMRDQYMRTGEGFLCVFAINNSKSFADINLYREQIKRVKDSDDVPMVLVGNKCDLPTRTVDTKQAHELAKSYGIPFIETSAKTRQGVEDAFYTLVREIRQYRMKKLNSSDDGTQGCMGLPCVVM
Sequence of NRAS Q61R (P62937 whole entry): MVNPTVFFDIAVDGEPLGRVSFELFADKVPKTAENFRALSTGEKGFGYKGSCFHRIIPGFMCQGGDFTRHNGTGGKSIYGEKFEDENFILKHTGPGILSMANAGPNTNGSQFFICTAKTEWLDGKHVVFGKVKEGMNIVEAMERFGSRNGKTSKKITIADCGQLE
Sequence of NRAS Q61K (P01111 whole entry Q61K): as the sequence (P01111 whole entry Q61R) above, with R61K counted along it
Sequence of NRAS Q61K (P62937 whole entry): as the sequence (P62937 whole entry) above
Sequence of KRAS G12C (P01116 1-169 isoform P01116-2 G12C): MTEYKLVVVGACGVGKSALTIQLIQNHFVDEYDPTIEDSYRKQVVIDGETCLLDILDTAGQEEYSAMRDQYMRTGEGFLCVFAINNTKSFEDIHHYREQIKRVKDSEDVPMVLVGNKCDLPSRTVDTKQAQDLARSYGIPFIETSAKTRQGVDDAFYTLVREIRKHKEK
Sequence of KRAS G12C (P62937 whole entry): as the sequence (P62937 whole entry) above
Sequence of KRAS G12V (P01116 1-169 isoform P01116-2 G12V limits assumed): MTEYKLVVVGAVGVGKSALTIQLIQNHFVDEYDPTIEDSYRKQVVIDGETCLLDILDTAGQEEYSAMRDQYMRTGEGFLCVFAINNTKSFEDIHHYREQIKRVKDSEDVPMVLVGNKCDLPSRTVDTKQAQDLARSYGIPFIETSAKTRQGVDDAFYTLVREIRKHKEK
Sequence of KRAS G12V (P62937 whole entry): as the sequence (P62937 whole entry) above
Sequence of KRAS Q61H (P01116 1-169 isoform P01116-2 Q61H limits assumed): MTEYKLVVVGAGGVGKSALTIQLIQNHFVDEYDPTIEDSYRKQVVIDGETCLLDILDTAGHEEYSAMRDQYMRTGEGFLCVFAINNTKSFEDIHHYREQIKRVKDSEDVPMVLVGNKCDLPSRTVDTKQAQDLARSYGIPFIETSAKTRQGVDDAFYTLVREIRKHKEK
Sequence of KRAS Q61H (P62937 whole entry): as the sequence (P62937 whole entry) above
Sequence of KRAS G12D (P01116 1-169 isoform P01116-2 G12D limits assumed): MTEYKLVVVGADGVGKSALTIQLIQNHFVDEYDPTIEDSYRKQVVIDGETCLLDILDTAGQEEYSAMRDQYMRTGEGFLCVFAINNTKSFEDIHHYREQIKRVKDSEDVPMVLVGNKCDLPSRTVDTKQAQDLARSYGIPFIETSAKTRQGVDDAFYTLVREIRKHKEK
Sequence of KRAS G12D (P62937 whole entry): as the sequence (P62937 whole entry) above
Sequence of KRAS WT (P01116 1-169 isoform P01116-2 limits assumed): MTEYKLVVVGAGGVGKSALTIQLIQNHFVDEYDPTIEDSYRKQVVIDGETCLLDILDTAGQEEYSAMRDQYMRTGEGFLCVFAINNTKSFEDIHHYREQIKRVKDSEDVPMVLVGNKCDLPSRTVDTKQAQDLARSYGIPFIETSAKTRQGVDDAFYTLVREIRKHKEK
Sequence of KRAS WT (P62937 whole entry): as the sequence (P62937 whole entry) above
Sequence of NRAS G12C (P01111 whole entry G12C): as the sequence (P01111 whole entry Q61R) above, with G12C, R61Q counted along it
Sequence of NRAS G12C (P62937 whole entry): as the sequence (P62937 whole entry) above
Sequence of KRAS G13D (P01116 1-169 isoform P01116-2 G13D limits assumed): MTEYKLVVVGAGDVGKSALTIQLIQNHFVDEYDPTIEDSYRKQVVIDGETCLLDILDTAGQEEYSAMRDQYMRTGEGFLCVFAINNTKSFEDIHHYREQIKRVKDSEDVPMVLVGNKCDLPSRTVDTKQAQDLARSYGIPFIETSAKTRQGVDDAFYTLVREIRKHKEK
Sequence of KRAS G13D (P62937 whole entry): as the sequence (P62937 whole entry) above
Sequence of KRAS G12S (P01116 1-169 isoform P01116-2 G12S limits assumed): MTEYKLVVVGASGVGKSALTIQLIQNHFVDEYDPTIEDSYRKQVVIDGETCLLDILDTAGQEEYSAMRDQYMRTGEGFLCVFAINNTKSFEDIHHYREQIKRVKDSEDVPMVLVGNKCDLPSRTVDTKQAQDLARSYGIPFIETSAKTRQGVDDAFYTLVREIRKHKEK
Sequence of KRAS G12S (P62937 whole entry): as the sequence (P62937 whole entry) above
Sequence of KRAS G13C (P01116 1-169 isoform P01116-2 G13C): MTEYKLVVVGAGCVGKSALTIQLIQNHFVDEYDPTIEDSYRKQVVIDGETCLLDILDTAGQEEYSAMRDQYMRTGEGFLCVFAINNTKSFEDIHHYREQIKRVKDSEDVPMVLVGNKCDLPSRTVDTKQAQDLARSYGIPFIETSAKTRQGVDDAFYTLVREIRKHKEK
Sequence of KRAS G13C (P62937 whole entry): as the sequence (P62937 whole entry) above
Sequence of NRAS WT (P01111 whole entry): as the sequence (P01111 whole entry Q61R) above, with R61Q counted along it
Sequence of NRAS WT (P62937 whole entry): as the sequence (P62937 whole entry) above

| Compound | IC50 [1] | IC50 [2] | IC50 [3] | IC50 [4] | IC50 [5] | IC50 ([6]; KRAS G12D FRET data, IC50) | IC50 ([7]; KRAS G12S FRET data, IC50) | IC50 ([8]; KRAS G13C FRET data, IC50) | IC50 ([9]; KRAS G12C FRET data, IC50) | IC50 [10, 15] | IC50 [11, 16] | IC50 [6, 19] | IC50 [7, 20] | IC50 [8, 21] | IC50 [9, 22] | IC50 [10, 23] | IC50 [11, 24] | IC50 [12, 25] | IC50 [13, 26] | IC50 [14] | other results |
| --- | --- | --- | --- | --- | --- | --- | --- | --- | --- | --- | --- | --- | --- | --- | --- | --- | --- | --- | --- | --- | --- |
| CCn1c(-c2cnccc2COC)c2c3cc(ccc31)-c1cc(O)cc(c1)C[C@H](NC(=O)[C@H](C(C)C)N(C)S(C)(=O)=O)C(=O)N1CCC[C@H](N1)C(=O)OCC(C)(C)C2 [Example A57, (2S)—N-[(8S,14S)-22-ethyl-4-hydroxy-21-[4-(methoxymethyl)pyridin-3-yl]-18,18-dimethyl-9,15-dioxo-16-oxa-10,22,28-triazapentacyclo[18.5.2.1^2,6.1^10,14.0^23,27]nonacosa-1(26),2,4,6(29),20,23(27),24-heptaen-8-yl]-3-methyl-2-(N-methylmethanesulfonamido)butanamide] | 0.1 to 1 µM | 1 to 10 µM | 1 to 10 µM | 1 to 10 µM | 1 to 10 µM | > 10 µM | 1 to 10 µM | 1 to 10 µM | 1 to 10 µM | 1 to 10 µM | 1 to 10 µM |  |  |  |  |  |  |  |  |  | IC50 [12, 17]: 1 to 10 µM; IC50 [13, 18]: 1 to 10 µM |
| CCn1c(-c2cc(N3CCN(C)CC3)cnc2[C@H](C)OC)c2c3cc(ccc31)-c1csc(n1)C[C@H](NC(C)=O)C(=O)N1CCC[C@H](N1)C(=O)OCC(C)(C)C2 [Example A321] | 0.1 to 1 µM | 0.1 to 1 µM | 0.1 to 1 µM | 0.1 to 1 µM | 0.1 to 1 µM |  |  |  |  |  |  | 0.1 to 1 µM | 0.1 to 1 µM | 0.1 to 1 µM | 0.01 to 0.1 µM | 0.1 to 1 µM | 0.01 to 0.1 µM | 0.1 to 1 µM | 0.1 to 1 µM |  |  |
| CCn1c(-c2cccnc2[C@H](C)OC)c2c3cc(ccc31)-c1csc(n1)C[C@H](NC(=O)[C@@H]1CCCO1)C(=O)N1CCC[C@H](N1)C(=O)OCC(C)(C)C2 [Example A331] | 0.1 to 1 µM | 0.1 to 1 µM | 1 to 10 µM | 0.1 to 1 µM |  |  |  |  |  |  |  | 1 to 10 µM | 0.1 to 1 µM | 0.1 to 1 µM | 0.1 to 1 µM | 1 to 10 µM | 0.1 to 1 µM | 0.1 to 1 µM | 0.1 to 1 µM | 1 to 10 µM |  |
| CCn1c(-c2cccnc2[C@H](C)OC)c2c3cc(ccc31)-c1csc(n1)C[C@H](NC(=O)c1ccccn1)C(=O)N1CCC[C@H](N1)C(=O)OCC(C)(C)C2 [Example A366] | 0.1 to 1 µM | 0.1 to 1 µM | 1 to 10 µM | 0.1 to 1 µM |  |  |  |  |  |  |  | 1 to 10 µM | 1 to 10 µM | 0.1 to 1 µM | 0.1 to 1 µM | 1 to 10 µM | 0.1 to 1 µM | 1 to 10 µM | 0.1 to 1 µM | 1 to 10 µM |  |
| CCn1c(-c2cccnc2[C@H](C)OC)c2c3cc(ccc31)-c1csc(n1)C[C@H](NC(=O)[C@H](C(C)C)N(C)C(=O)N1CC[C@]13CCCNC3)C(=O)N1CCC[C@H](N1)C(=O)OCC(C)(C)C2 [Example A434] | 0.01 to 0.1 µM | 0.1 to 1 µM | 0.1 to 1 µM | 0.01 to 0.1 µM |  |  |  |  |  |  |  | 0.1 to 1 µM | 0.1 to 1 µM | 0.1 to 1 µM | 0.1 to 1 µM | 0.1 to 1 µM | 0.1 to 1 µM | 0.1 to 1 µM | 1 to 10 µM | 1 to 10 µM |  |
| CCn1c(-c2cccnc2[C@H](C)OC)c2c3cc(ccc31)-c1csc(n1)C[C@H](NC(=O)[C@H](C(C)C)N(C)C(=O)N1CC(N)(C#N)C1)C(=O)N1CCC[C@H](N1)C(=O)OCC(C)(C)C2 [Example A456] | 0.1 to 1 µM | 0.1 to 1 µM | 0.1 to 1 µM | 0.1 to 1 µM |  | 1 to 10 µM | 0.1 to 1 µM | 0.1 to 1 µM | 0.1 to 1 µM | 1 to 10 µM | 0.1 to 1 µM |  |  |  |  |  |  |  |  | 1 to 10 µM | IC50 [12, 17]: 0.1 to 1 µM; IC50 [13, 18]: 0.1 to 1 µM |
